Laboratory results reported in patent publication US10507211B2, “Treatment for hereditary neuropathy with liability to pressure palsies (HNPP)” (Vanderbilt University, priority 2016, dated 2019).
Marks after values point to notes of the source that are not given here.

How the values were obtained:
Pmp22+/− mice [1] = experiment: Mouse tolerance to PF3758309 (i.p. daily); format: in vivo
Text: Pmp22+/− mice were backcrossed with C57Bl6J mice (Jackson Lab) for more than 10 generations to reach congenic. Mice were genotyped as described. The congenic Pmp22+/− mice have been extensively characterized.
For PAK1 inhibitor (PF3758309) injections, Pmp22+/− mice were randomized into vehicle and treated groups. Based on the power calculation of variations derived from mouse compound nerve action potentials, 7 mice for each group would have a 92% chance to detect a significant difference. PF-3758309 (Cat# CT-PF0375, ChemieTek) was dissolved in normal saline for intraperitoneal injection (i.p.) daily.

MEK1 = experiment: Western blot of phosphorylated MEK1 (S298) in sciatic nerves of treated Pmp22+/− mice; format: in vivo, mouse; details: 1 week old at start of injection; 0.25 mg/kg/day I.P.; 11 weeks; n = 8
Text: Residues in other PAKs could be phosphorylated but cannot be substantiated due to the lack of specific antibodies.
Samples were homogenized for protein isolation.

F-actin = F-actin staining of teased nerve fibers with fluorescent phalloidin in treated Pmp22+/− mice; format: in vivo, mouse; details: versus vehicle
Experimental: This method was modified from the published study. In brief, sciatic nerves were fixed, embedded in paraffin, and cut into 5 μm-thick slices. Sections were incubated overnight with primary antibodies at 4° C. After washing, sections were stained for 1 hour with secondary antibodies. The stained slides were examined under a Leica fluorescent microscope (Leica DM6000B). For teased nerve stains, sciatic nerves were fixed in 4% paraformaldehyde (PFA) overnight and teased into individual fibers on glass slides. […] For newly formed F-actin staining, as described, the existing F-actin in sciatic nerve explants was saturated with a cell-permeable actin-binding compound, jasplakinolide (Cat#420127, Millipore), at 1 μM in culture media. After washing with PBS, the explants were incubated in a drug-free media for 6 hours at 37° C. The explants were fixed in 4% PFA and teased for F-actin staining using fluorescent phalloidin (1:400, Cat# R415, Life Technologies).

PAK1 [2] = experiment: F-actin and phosphorylated PAK1 in Pak1+/+ and Pak1−/− primary Schwann cell culture; format: cell-based; details: Pak1−/− Schwann cells; 9 μM for 12 hour
Text: (§1) FIG. 8. […] The total actin and GAPDH were used as loading controls.

PAK2 = target: T1, PAK2 (Mus musculus, UniProt Q8CIN4); experiment: Phosphorylated PAK2 (S20) in primary Schwann cell culture; format: cell-based; details: Schwann cells; 9 μM for 12 hour
T1 construct: Pak1+/+ and Pak1−/− primary Schwann cell culture; endogenous in cells; host or cells: primary Schwann cells, Pak1+/+ and Pak1-/-
Text: as §1

[3] = reference [23]; cited from earlier work
Pmp22+/− mice [4] = experiment: Nerve conduction study (NCS) on sciatic nerves of treated Pmp22+/− mice; details: for CV(m/s): 0.25 mg/kg/day I.P., n = 8
Experimental: (§2) Thus, Pmp22+/− mice were treated with 0.25, 0.5, 1.0 mg/kg PF3758309 or vehicle—saline (FIG. 7 and Table 1). […] Injection started at age of postnatal day 7.
In FIG. 7, Panel B, CMAP amplitudes were measured prior to the treatment.
NCS was previously described [8]. […] A skilled technician gets NCS done in each mouse within 6 minutes. […] CMAP was recorded from the intrinsic foot muscle using needle electrodes. Stimulation electrodes were positioned percutaneously at the sciatic notch and adjacent to the tibial nerve at the ankle. CMAP amplitudes were measured from baseline to the peak of negative deflection.

Pmp22+/− mice [5] = experiment: Percentage of teased nerve fibers with tomacula in treated Pmp22+/− mice; details: 0.25 mg/kg/day I.P.
Text: (§3) Injection started at age of postnatal day 7. […] Using teased nerve fibers, the percentages of nerve fibers with tomacula, a key pathology of HNPP, was quantified, as described [8].
Another 14 Pmp22+/− mice (un-injected) were counted.

PAK1 [6] = target: T2, PAK1 (Mus musculus, UniProt O88643); experiment: Western blot of phosphorylated PAK1 (T212) in sciatic nerves of treated Pmp22+/− mice; details: 0.25 mg/kg/day I.P., n = 8
Target sequence in this assay (O88643 whole entry): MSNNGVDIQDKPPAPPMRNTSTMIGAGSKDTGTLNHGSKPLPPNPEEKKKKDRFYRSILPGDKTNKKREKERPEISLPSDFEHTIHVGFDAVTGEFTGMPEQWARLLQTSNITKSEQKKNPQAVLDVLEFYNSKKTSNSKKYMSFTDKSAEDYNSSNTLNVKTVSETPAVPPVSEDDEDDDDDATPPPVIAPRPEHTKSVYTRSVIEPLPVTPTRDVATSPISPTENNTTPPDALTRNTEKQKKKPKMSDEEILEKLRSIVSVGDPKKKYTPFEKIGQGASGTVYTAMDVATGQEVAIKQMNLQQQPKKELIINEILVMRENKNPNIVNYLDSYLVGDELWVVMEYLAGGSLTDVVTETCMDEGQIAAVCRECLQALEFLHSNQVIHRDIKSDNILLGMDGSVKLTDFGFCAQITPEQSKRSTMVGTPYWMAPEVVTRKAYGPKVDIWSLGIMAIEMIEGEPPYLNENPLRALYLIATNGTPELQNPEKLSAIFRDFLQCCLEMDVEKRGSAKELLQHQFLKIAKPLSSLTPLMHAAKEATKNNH
Experimental: The specificity of total PAK1, S144, and T212 antibodies was verified using Pak1+/+ and Pak1−/− nerves.
as §3
Samples were homogenized for protein isolation. […] Samples were loaded into SDS-PAGE gels and transferred to a PVDF membrane. The membranes were blotted with 5% non-fat milk and incubated overnight at 4° C. with primary antibodies, and followed by secondary antibodies. The immune complexes were detected by the enhanced chemoilluminescence (Cat# NEL103001, Perkin Elmer). In some cases, the blots were stripped and re-probed with additional antibodies. Quantification of band intensity was performed by the ImageJ software (rsbweb.nih.gov/ij/).

claudin-19 = experiment: Abnormal claudin-19 staining of paranodes and incisures (tight junctions) in treated Pmp22+/− mice; details: 0.25 mg/kg/day I.P., n = 8
Text: Paraffin sections of mouse sciatic nerves were stained with antibodies. Percentages of abnormal paranodes or incisures were manually counted [3]. An abnormal paranode or incisurae was defined as the staining was absent in more than a half of normally stained paranodal or incisure territory. […] White dots outline the margin of the nerve fiber, based on its phase-contrast image. […] As shown in Panel E of FIG. 2, teased sciatic nerve fibers of Pmp22+/+ mice at the 3 months of age were stained with antibodies against claudin-19 to show paranodes (quadrant E1) and incisures (arrowhead in quadrant E3).
as §2
In brief, sciatic nerves were fixed, embedded in paraffin, and cut into 5 μm-thick slices. Sections were incubated overnight with primary antibodies at 4° C. After washing, sections were stained for 1 hour with secondary antibodies. The stained slides were examined under a Leica fluorescent microscope (Leica DM6000B). For teased nerve stains, sciatic nerves were fixed in 4% paraformaldehyde (PFA) overnight and teased into individual fibers on glass slides. The slides were dried overnight, reacted with primary antibodies, and followed by secondary antibodies.

Pmp22+/− mice [7] = experiment: Evaluation of myelin permeability with 3 kDa Dextran in sciatic nerve fascicles of treated Pmp22+/− mice; details: 3-month-old Pmp22+/− mice; 0.25 mg/kg; versus vehicle; P<0.001
Experimental: With reference to Panel E of FIG. 7, sciatic nerve fascicles from 3-month-old Pmp22+/− mice were incubated with 3 kDa Dextran, as described [3], to evaluate the myelin permeability. Individual teased nerve fibers were imaged. Arrowheads point to the node of Ranvier. […] With reference to Panel F of FIG. 7, fluorescence intensity was quantified by placing a 2.5 μm×2.5 μm interest box 10 μm away from the middle point of the node of Ranvier.
In brief, 1 cm sciatic nerve fascicles were submerged in artificial CSF after epineurium removal and sealed at both ends with Vaseline. A 3 kDa Dextran of fluorescence (2 mg/ml, Cat# D3329, Life technologies) was added for one hour incubation at room temperature without oxygenation. After washing, the nerve fascicles were fixed in 4% PFA for 10 minutes and teased into individual nerve fibers on glass slides for fluorescence microscopy. Fluorescence intensity was quantified by placing a 5 μm×5 μm interest box 10 μm away from the middle point of the node of Ranvier.

PAK1 [8] = target: T2, PAK1; experiment: F-actin and phosphorylated PAK1 in Pak1+/+ and Pak1−/− primary Schwann cell culture; format: cell-based; design: Pak1+/+ and Pak1−/− primary Schwann cell culture; endogenous in cells; host or cells: primary Schwann cells, Pak1+/+ and Pak1-/-; details: Pak1+/+ Schwann cells; 9 μM for 12 hour
Text: as §1
Target sequence in this assay (O88643 2-545): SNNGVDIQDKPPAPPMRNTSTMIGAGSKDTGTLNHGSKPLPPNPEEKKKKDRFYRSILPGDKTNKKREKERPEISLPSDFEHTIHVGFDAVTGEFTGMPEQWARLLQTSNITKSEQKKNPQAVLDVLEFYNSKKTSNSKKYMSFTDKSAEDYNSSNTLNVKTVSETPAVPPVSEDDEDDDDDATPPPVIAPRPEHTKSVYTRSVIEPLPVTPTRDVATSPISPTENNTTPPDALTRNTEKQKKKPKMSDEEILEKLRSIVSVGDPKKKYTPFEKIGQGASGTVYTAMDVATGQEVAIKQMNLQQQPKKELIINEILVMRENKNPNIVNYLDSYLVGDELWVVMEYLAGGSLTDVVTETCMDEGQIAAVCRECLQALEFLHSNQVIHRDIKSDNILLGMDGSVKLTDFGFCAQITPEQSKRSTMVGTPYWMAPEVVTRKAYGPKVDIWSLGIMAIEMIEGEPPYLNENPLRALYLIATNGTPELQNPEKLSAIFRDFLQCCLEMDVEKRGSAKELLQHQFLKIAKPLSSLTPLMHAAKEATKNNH

[9] = 1 week old at start of injection, 11 weeks
[10] = 6-11 month age at start of injection, 4 weeks

T1 sequence (Q8CIN4 whole entry): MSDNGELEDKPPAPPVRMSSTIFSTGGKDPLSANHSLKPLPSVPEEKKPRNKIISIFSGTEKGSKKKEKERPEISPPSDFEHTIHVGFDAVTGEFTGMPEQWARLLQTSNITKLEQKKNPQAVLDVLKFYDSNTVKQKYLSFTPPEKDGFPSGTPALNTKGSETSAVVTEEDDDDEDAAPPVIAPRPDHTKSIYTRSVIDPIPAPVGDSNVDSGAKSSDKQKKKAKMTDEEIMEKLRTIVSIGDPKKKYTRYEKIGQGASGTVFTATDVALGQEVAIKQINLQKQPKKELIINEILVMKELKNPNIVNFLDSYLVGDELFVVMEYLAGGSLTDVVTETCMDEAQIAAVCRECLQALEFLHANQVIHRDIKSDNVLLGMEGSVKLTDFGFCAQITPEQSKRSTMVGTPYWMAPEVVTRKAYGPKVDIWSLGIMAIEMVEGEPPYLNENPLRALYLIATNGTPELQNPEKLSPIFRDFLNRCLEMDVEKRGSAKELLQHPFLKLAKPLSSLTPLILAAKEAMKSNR

Cc1nc(Nc2n[nH]c3c2CN(C(=O)N[C@H](CN(C)C)c2ccccc2)C3(C)C)c2sccc2n1 [PF-3758309]
mortality and side-effect (Pmp22+/− mice [1]; 0.25 mg/kg, treated for 11 weeks): no increase of mouse mortality and observable side-effect | mice killed (Pmp22+/− mice [1]; 2.5 mg/kg or 25 mg/kg i.p. daily, 20 Pmp22+/− mice, within 15 days): over 50% | body weight (Pmp22+/− mice [1]; 2.5 mg/kg or 25 mg/kg i.p. daily, within 15 days): drastic reduction of body weight | tolerance (body weight, death) (Pmp22+/− mice [1]; 0.25, 0.5, 1.0 mg/kg i.p. daily, 11 weeks): tolerated these doses well with no change of body weight or increase of death | Ratio (S298/MEK1) (MEK1): 0.39 ± 0.2 | levels of F-actin (F-actin; 0.25 mg/kg i.p. daily for 11 weeks, 3-month-old Pmp22+/− mice): suppressed | F-actin levels (F-actin; mice enrolled at 6-11 months, 0.25 mg/kg): significantly lower | F-actin level (PAK1 [2]): failed to change | level of phosphorylated PAK2 (S20) (PAK2): inhibited | total PAK2 levels (PAK2): not altered | penetration into the nervous system [3]: penetrated into the nervous system | CMAP amplitude (Pmp22+/− mice [4]; 1.00 mg/kg i.p. daily for 11 weeks from postnatal day 7, eight 3-month-old Pmp22+/− mice (Pmp22+/+ 3.2±0.6 mV)): 1.5±0.8 mV | decline of CMAP amplitudes (Pmp22+/− mice [4]; 0.25, 0.5, 1.0 mg/kg i.p. daily for 11 weeks from postnatal day 7, versus vehicle): prevented the decline of CMAP amplitudes with all three dosages | CV(m/s) (Pmp22+/− mice [4]; [9]): 17.8 ± 3.0 m/s | CV(m/s) (Pmp22+/− mice [4]; [10]): 19.7 ± 11.1 m/s | decrease of CMAP amplitudes over the course of treatment (Pmp22+/− mice [4]; mice enrolled at 6-11 months, 0.25 mg/kg, vehicle fell from 1.6±0.7 mV to 0.7±0.2 mV): completely prevented | % Tomacula (Pmp22+/− mice [5]; 1 week old at start of injection, 11 weeks, n = 8): 27.3 ± 4.5% | % Tomacula +outlier (Pmp22+/− mice [5]; 6-11 month age at start of injection, 4 weeks, outlier included): 25.2 ± 7.5% | % Tomacula −outlier (Pmp22+/− mice [5]; 6-11 month age at start of injection, 4 weeks, outlier taken off): 22.8 ± 4.3 ^d % | Ratio (T212/PAK1) (PAK1 [6]; [9]): 0.61 ± 0.0 | Ratio (T212/PAK1) (PAK1 [6]; [10]): 0.26 ± 0.1 | % abnormal Claudin-19 (incisures) (claudin-19; incisures, 1 week old at start of injection, 11 weeks): 27.7 ± 4.6 ^b % | % abnormal Claudin-19 (paranodes) (claudin-19; [9]): 36.5 ± 18.4 ^a % | % abnormal Claudin-19 (paranodes) (claudin-19; [10]): 43.5 ± 13.3 ^a % | 3 kDa Dextran fluorescence intensity (myelin permeability) (Pmp22+/− mice [7]): significantly decreased | F-actin level (PAK1 [8]): hardly detectable | level of phosphorylated PAK1 (S144) (PAK1 [8]): suppressed | level of phosphorylated PAK1 (T212) (PAK1 [8]): suppressed
